By IC50 is commonly meant the midpoint of a concentration-inhibition curve. Low values mean greater potency, high ones weaker potency.

IC50 data for 23 molecules are collected here from patent publication US10669238B2, “Irreversible bruton's tyrosine kinase inhibitor” (HEFEI INSTITUTES OF PHYSICAL SCIENCE, CHINESE ACADEMY OF …, priority 2016, dated 2020).

BTK protein kinase, sequence (Q06187 whole entry): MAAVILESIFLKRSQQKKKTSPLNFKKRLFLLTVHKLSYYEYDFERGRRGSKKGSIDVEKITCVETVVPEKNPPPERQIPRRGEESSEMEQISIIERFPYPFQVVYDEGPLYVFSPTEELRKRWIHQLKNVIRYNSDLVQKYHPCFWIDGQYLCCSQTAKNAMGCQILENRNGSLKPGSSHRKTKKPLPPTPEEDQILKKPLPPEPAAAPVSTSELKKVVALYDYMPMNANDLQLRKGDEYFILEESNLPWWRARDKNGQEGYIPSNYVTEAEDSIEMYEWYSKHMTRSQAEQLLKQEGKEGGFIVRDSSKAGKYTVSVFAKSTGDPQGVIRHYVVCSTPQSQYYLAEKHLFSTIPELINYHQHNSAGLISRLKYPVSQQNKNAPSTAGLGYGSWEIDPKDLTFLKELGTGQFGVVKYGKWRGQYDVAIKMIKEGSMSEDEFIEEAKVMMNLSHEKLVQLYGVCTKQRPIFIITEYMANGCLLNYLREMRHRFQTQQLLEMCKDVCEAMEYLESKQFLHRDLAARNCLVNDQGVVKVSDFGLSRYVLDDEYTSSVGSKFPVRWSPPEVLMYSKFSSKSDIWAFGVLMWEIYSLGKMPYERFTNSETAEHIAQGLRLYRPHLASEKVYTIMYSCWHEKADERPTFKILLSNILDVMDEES

For one test, the target named is BTK protein kinase (Homo sapiens, UniProt Q06187). The test can be described thus: In vitro enzymatic activity against BTK (ADP-Glo). In kind it is biochemical. The conditions noted are these: compound with BTK 4 hours at room temperature; ATP 10 μM, 37° C. 1 hour; values given in μM. How it is done:
In vitro enzymatic activity of the compounds against BTK was determined in a experimental assay of in vitro enzymatic activity using […] kit (purchased from Progema, USA).
9 μL of BTK protein kinase (at a concentration of 1.5 ng/μL) was used to react with compounds (1 μL) shown in the following table that were diluted three times in gradient at room temperature for 4 hours (the final concentration of the compound being 10 μM, 3 μM, 1 μM, 0.3 μM, 0.1 μM, 0.03 μM, 0.01 μM, 0.003 μM);
2 μL of ATP and 3 μL of the substrate Poly(4:1 Glu, Tyr)Peptide (Promega, USA) (the final concentrations being 10 μM and 0.2 μg/μL, respectively) were added to allow reaction at 37° C. for 1 hour;
5 μL of BTK kinase solution after reaction was taken and added into 5 μL of ADP-Glo™ (Promega, USA) reagent to allow reaction at room temperature for 40 mins so as to terminate the kinase reaction and exhaust the remaining ATP;
10 μL kinase detecting reagent was added to convert ADP to ATP, and newly synthesized ATP was detected using coupled luciferase/[…] reaction, then the IC50 values were calculated by using a plotting method based on the Envision reading.
On to `C=CC(=O)Nc1cc(Nc2cc(-c3cccc(NC(=O)c4ccccc4)c3C)cn(C)c2=O)ccc1C(=O)N1CCOCC1` [Compound 12, N-(3-(5-((3-acrylamide-4-(morpholin-4-carbonyl)phenyl)amino)-1-methyl-6-oxo-1,6-dihydropyridin-3-yl)-2-methylphenyl)benzoylamide], for which the concentration for half-maximal inhibition (IC50) stood at 4.62 µM.

Staying with this test, now noted: compound with BTK 4 hours at room temperature; ATP 10 μM, 37° C. 1 hour; values in nM.
`CCC(=O)Nc1cc(Nc2cc(-c3cccc(NC(=O)c4ccc(C(C)(C)C)cc4)c3C)cn(C)c2=O)ccc1C(=O)N1CCN(C(=O)OC(C)(C)C)CC1` [Compound 39, tertbutyl 4-(2-propanamide-4-((5-(3-(4-(tert-butyl)benzamide)-2-methylphenyl)-1-methyl-2-oxo-1,2-dihydropyridin-3-yl)amino)benzoyl)piperazin-1-carboxylate] came in with an IC50 of 0.503 µM.

Consider `C=CC(=O)Nc1cc(Nc2cc(-c3cccc(NC(=O)c4ccc(N(C)C)cc4)c3C)cn(C)c2=O)ccc1C(=O)N1CCCC(O)C1` (centres unmarked) [Compound 55, N-(3-(5-((3-acrylamide-4-(3-hydroxypiperdin-1-carbonyl)phenyl)amino)-1-methyl-6-oxo-1,6-dihydropyridin-3-yl)-2-methylphenyl)-4-(dimethylamino)benzoylamide], for which inhibition was half-maximal at 0.181 µM (IC50).

On to `Cc1ccc(C(=O)Nc2cccc(-c3cc(Nc4ccc(C(=O)N5CCOCC5)c(NC(=O)CCl)c4)c(=O)n(C)c3)c2C)cc1` [Compound 11, N-(3-(5-((3-chloroacetamide-4-(morpholin-4-carbonyl)phenyl)amino)-1-methyl-6-oxo-1,6-dihydropyridin-3-yl)-2-methylphenyl)-4-(methyl)benzoylamide], for which the IC50 came out at 0.152 µM.

For `C=CC(=O)Nc1cc(Nc2cc(-c3cccc(NC(=O)c4ccc(N(C)C)cc4)c3C)cn(C)c2=O)ccc1N1CCN(CC)CC1` [Compound 74, N-(3-(5-((3-acrylamide-4-(4-ethylpiperazin-1-yl)phenyl)amino)-1-methyl-6-oxo-1,6-dihydropyridin-3-yl)-2-methylphenyl)-4-(dimethylamino)benzoylamide], the IC50 is 0.023 µM.

For `C=CC(=O)Nc1cc(Nc2cc(-c3cccc(NC(=O)c4ccc(N5CCOCC5)cc4)c3C)cn(C)c2=O)ccc1C(=O)N1CCOCC1` [Compound 15, N-(3-(5-((3-acrylamide-4-(morpholin-4-carbonyl)phenyl)amino)-1-methyl-6-oxo-1,6-dihydropyridin-3-yl)-2-methylphenyl)-4-morpholinbenzoylamide], the IC50 came out at 0.262 µM. Against the preceding molecule, the IC50 is about 11-fold higher.

In the case of `C=CC(=O)Nc1cc(Nc2cc(-c3cccc(NC(=O)c4ccc(C(C)(C)C)cc4)c3C)cn(C)c2=O)ccc1C(=O)N1CCCC1` [Compound 31, N-(3-(5-((3-acrylamide-4-(pyrrolidin-1-carbonyl)phenyl)amino)-1-methyl-6-oxo-1,6-dihydropyridin-3-yl)-2-methylphenyl)-4-(tert-butyl)benzamide], half-maximal inhibition (IC50) required 0.019 µM.

On to `Cc1c(NC(=O)c2ccc(C(C)(C)C)cc2)cccc1-c1cc(Nc2ccc(C(=O)N3CCOCC3)c(NC(=O)CCl)c2)c(=O)n(C)c1` [Compound 2, N-(3-(5-((3-chloroacetamide-4-(morpholin-4-carbonyl)phenyl)amino)-1-methyl-6-oxo-1,6-dihydropyridin-3-yl)-2-methylphenyl)-4-(tert-butyl)benzamide], for which inhibition was half-maximal at 0.0379 µM (IC50).

`C=CC(=O)Nc1cc(Nc2cc(-c3cccc(NC(=O)c4ccc5c(c4)CCCC5)c3C)cn(C)c2=O)ccc1C(=O)N1CCOCC1` [Compound 43, N-(3-(5-((3-acrylamide-4-(morpholin-4-carbonyl)phenyl)amino)-1-methyl-6-oxo-1,6-dihydropyridin-3-yl)-2-methylphenyl)-5,6,7,8-tetrahydronaphthalene-2-carboxamide] gave an IC50 of 0.041 µM.

Turning to `C=CC(=O)Nc1cc(Nc2cc(-c3cccc(NC(=O)c4cc5ccccc5s4)c3C)cn(C)c2=O)ccc1-n1cccn1` [Compound 85, N-(3-(5-((3-acrylamide-4-(1H-pyrazol-1-yl)phenyl)amino)-1-methyl-6-oxo-1,6-dihydropyridin-3-yl)-2-methylphenyl)benzo[b]thiophene-2-carboxamide], the IC50 turned out to be 0.13 µM.

Molecule `C=CC(=O)Nc1cc(Nc2cc(-c3cccc(NC(=O)c4cc5c(s4)CCCC5)c3C)cn(C)c2=O)ccc1N1CCN(C(C)C)CC1` [Compound 89, N-(3-(5-((3-acrylamide-4-(4-isopropylpiperazin-1-yl)phenyl)amino)-1-methyl-6-oxo-1,6-dihydropyridin-3-yl)-2-methylphenyl)-4,5,6,7-tetrahydrobenzo[b]thiophene-2-carboxamide] showed an IC50 of 0.0231 µM.

In turn, `C=CC(=O)Nc1cc(Nc2cc(-c3cccc(NC(=O)c4ccc(N(C)C)cc4)c3C)cn(C)c2=O)ccc1N1CCOCC1` [Compound 73] showed an IC50 of 0.0249 µM.

Consider `C=CC(=O)Nc1cc(Nc2cc(-c3cccc(NC(=O)c4cc5c(s4)CCCC5)c3C)cn(C)c2=O)ccc1N1CCC(N(C)C)CC1` [Compound 83, N-(3-(5-((3-acrylamide-4-(4-(dimethylamino)piperidin-1-yl)phenyl)amino)-1-methyl-6-oxo-1,6-dihydropyridin-3-yl)-2-methylphenyl)-4,5,6,7-tetrahydrobenzo[b]thiophene-2-carboxamide], for which inhibition was half-maximal at 0.0167 µM (IC50).

The molecule `C=CC(=O)Nc1cc(Nc2cc(-c3cccc(NC(=O)c4ccc5c(c4)OCO5)c3C)cn(C)c2=O)ccc1C(=O)N1CCOCC1` [Compound 18, N-(3-(5-((3-acrylamide-4-(morpholin-4-carbonyl)phenyl)amino)-1-methyl-6-oxo-1,6-dihydropyridin-3-yl)-2-methylphenyl)-benzo[d][1,3]dioxolanyl-5-carboxamide] returned an IC50 of 0.187 µM.

`C=CC(=O)Nc1cc(Nc2cc(-c3cccc(NC(=O)c4cc5c(s4)CCCC5)c3C)cn(C)c2=O)ccc1C(=O)N1CCOCC1` [Compound 65, N-(3-(5-((3-acrylamide-4-(morpholin-4-carbonyl)phenyl)amino)-1-methyl-6-oxo-1,6-dihydropyridin-3-yl)-2-methylphenyl)-4,5,6,7-tetrahydrobenzo[b]thiophene-2-carboxamide]: it took 0.025 µM to reach half-maximal inhibition (IC50).

The molecule `CCC(=O)Nc1cc(Nc2cc(-c3cccc(NC(=O)c4ccc(C(C)(C)C)cc4)c3C)cn(C)c2=O)ccc1C(=O)N1CCCC1` [Compound 33, N-(3-(5-((3-propanamide-4-(pyrrolidin-1-carbonyl)phenyl)amino)-1-methyl-6-oxo-1,6-dihydropyridin-3-yl)-2-methylphenyl)-4-(tert-butyl)benzamide] came in with an IC50 of 0.165 µM.

`C=CC(=O)Nc1cc(Nc2cc(-c3cccc(NC(=O)c4ccc(N(C)C)cc4)c3C)cn(C)c2=O)ccc1C(=O)NCCOC` [Compound 53, 2-acrylamide-4-((5-(3-(4-(dimethylamino)benzoylamide)-2-methylphenyl)-1-methyl-2-oxo-1,2-dihydropyridin-3-yl)amino)-N-(2-methoxyethyl)benzoylamide] had an IC50 of 0.667 µM.

With `C=CC(=O)Nc1cc(Nc2cc(-c3cccc(NC(=O)c4cc5c(s4)CCCC5)c3C)cn(C)c2=O)ccc1-n1cccn1` [Compound 86, N-(3-(5-((3-acrylamide-4-(1H-pyrazol-1-yl)phenyl)amino)-1-methyl-6-oxo-1,6-dihydropyridin-3-yl)-2-methylphenyl)-4,5,6,7-tetrahydrobenzo[b]thiophene-2-carboxamide], half-maximal inhibition (IC50) was put at 0.0099 µM.

As to `C=CC(=O)Nc1cc(Nc2cc(-c3cccc(NC(=O)c4ccc(CC)cc4)c3C)cn(C)c2=O)ccc1C(=O)N1CCOCC1` [Compound 62, N-(3-(5-((3-acrylamide-4-(morpholin-4-carbonyl)phenyl)amino)-1-methyl-6-oxo-1,6-dihydropyridin-3-yl)-2-methylphenyl)-4-ethylbenzoylamide], the IC50 turned out to be 0.164 µM.

The molecule `C=CC(=O)Nc1cc(Nc2cc(-c3cccc(NC(=O)c4ccc(C(C)C)cc4)c3C)cn(C)c2=O)ccc1C(=O)N1CCOCC1` [Compound 64, N-(3-(5-((3-acrylamide-4-(morpholin-4-carbonyl)phenyl)amino)-1-methyl-6-oxo-1,6-dihydropyridin-3-yl)-2-methylphenyl)-4-isopropylbenzoylamide] registered an IC50 of 0.022 µM.

Molecule `C=CC(=O)Nc1cc(Nc2cc(-c3cccc(NC(=O)c4cc5c(s4)CCCC5)c3C)cn(C)c2=O)ccc1N1CCCC1` [Compound 80, N-(3-(5-((3-acrylamide-4-(pyrrolidin-1-yl)phenyl)amino)-1-methyl-6-oxo-1,6-dihydropyridin-3-yl)-2-methylphenyl)-4,5,6,7-tetrahydrobenzo[b]thiophene-2-carboxamide] gave an IC50 of 0.083 µM.

Take `C=CC(=O)Nc1cc(Nc2cc(-c3cccc(NC(=O)c4cccc(OC)c4)c3C)cn(C)c2=O)ccc1C(=O)N1CCOCC1` [Compound 59, N-(3-(5-((3-acrylamide-4-(morpholin-4-carbonyl)phenyl)amino)-1-methyl-6-oxo-1,6-dihydropyridin-3-yl)-2-methylphenyl)-3-methoxy Benzoylamide]: the midpoint of inhibition, the IC50, lay at 0.816 µM.

`C=CC(=O)Nc1cc(Nc2cc(-c3cccc(NC(=O)c4ccc(C)s4)c3C)cn(C)c2=O)ccc1C(=O)N1CCOCC1` [Compound 71, N-(3-(5-((3-acrylamide-4-(morpholin-4-carbonyl)phenyl)amino)-1-methyl-6-oxo-1,6-dihydropyridin-3-yl)-2-methylphenyl)-5-methylthiophene-2-carboxamide] yielded an IC50 of 0.03 µM.
